# Results: patent US12606540B2, “Triazolone compound” (MEDSHINE DISCOVERY INC., priority 2020, dated 2026)
# Read-outs that look alike come from different tables or passages of the source.
# Legend:
# [1] = molecular target: DHODH enzyme (Homo sapiens, UniProt Q02127); assay: DHODH enzyme inhibitory activity in vitro (resazurin fluorescence); assay type: biochemical; details: 5 nM DHODH, 15 μM L-DHO, 80 μM Resazurin
# Text: The DHODH inhibitory activity of the compounds was detected by the following experimental method, and the experimental results are as shown in Table 1.
# DHODH uses flavin mononucleotide FMN to catalyze the oxidation of dihydrooratic acid DHO to produce oratic acid, while the re-oxidation of FMN requires the participation of coenzyme CoQ. In the experiment of detecting the DHODH enzyme activity, CoQ was replaced by Resazurin dye as the final electron acceptor in the enzyme activity reaction. Resazurin solution is blue, and the resorufin generated after reduction has red fluorescence, and the fluorescence signal can be detected under the 535 nm of excitation wavelength and the 590 nm of emission wavelength. The components of the reaction buffer used in the experiment were 100 mM Hepes pH 7.0, 150 mM NaCl, 0.3% CHAPS, 0.5 mg/mL BSA, 0.1 μM FMN and 1% DMSO. The final concentration of DHODH enzyme in the reaction system was 5 nM, and the final concentration of substrate L-DHO was 15 μM, the final concentration of indicator Resazurin was 80 μM. The components of the reaction stop buffer were 100 mM Hepes pH 7.0 and 5 mM Orotate. The specific method was as follows: 2-fold final concentration of the DHODH enzyme solution was mixed with the compound, incubated at room temperature for 20 min, 2-fold final concentration of the substrate mixture solution of L-DHO and resazurin was added and reacted, incubated at room temperature away from light for 45 min. Then the reaction was stopped by adding 2-fold final concentration of the reaction stop buffer to the reaction system, and incubated at room temperature for 10 min, the fluorescence signal of the reaction system was detected with EnVision under the condition of Ex/Em=535/590 nm.
# [2] = tested on: influenza virus A/Weiss/43 (H1N1); assay: Influenza virus cytopathic effect (CPE) experiment in MDCK cells; assay type: cell-based; details: unidentified influenza virus, H1N1, 120 h, 5 days incubation, CCK8
# [3] = tested on: human peripheral blood mononuclear cells; assay: Proliferation inhibition of peripheral blood mononuclear cells (flow cytometry); assay type: cell-based; details: PBMC, PHA-M 5 μg/mL stimulation, 48 hours
# Description: Flow cytometry was used to detect cell proliferation of human peripheral blood mononuclear cells.
# • Cell complete medium: 445 mL of RPMI1640 cell culture+50 mL of fetal bovine serum+5 mL of double antibody • Buffer 1: 9.9 mL of phosphate buffer+0.1 mL of 10% bovine serum protein • Buffer 2: 10 mL of fetal bovine serum+490 mL of phosphate buffer 3.2 Cell Thawing • 3.2.1 20 mL of cell complete medium was added to a 50 mL of centrifuge tube and pre-heated in a 37° C. water bath for 5 minutes; • 3.2.2 the cell cryotubes were removed from the liquid nitrogen storage tank and placed on dry ice for 5-10 minutes to allow the liquid nitrogen to evaporate fully; • 3.2.3 the cell cryotubes were clamped with forceps and placed in the water bath, and shaken gently to thaw the frozen cells quickly; • 3.2.4 the thawed cells were transferred to the pre-heated cell complete medium with a pipette, centrifuged at 350 g for 5 min, then the supernatant was discarded, and the cells was resuspended by adding 10 mL of phosphate buffer; • 3.2.5 counting by cell counter, and cell viability and cell count were recorded. 3.3 Cell Labeling • 3.3.1 Cell proliferation labeling solution (CellTrace™ Violet, 1:1000 dilution) was prepared • 3.3.2 the above mixture was centrifuged at 350 g for 5 minutes, and the supernatant was discarded, then the cells (20×10^6/mL) were resuspended by adding Buffer 1, and the resuspended cells were gently blown by pipette, and an equal volume of cell proliferation labeling solution (prepared in 3.3.1) was added, and gently blown well by pipette; • 3.3.3 incubating in a 5% CO2, 37° C. cell incubator for 18 minutes; • 3.3.4 the 5-fold volume of cell complete medium was added and leaved at room temperature for 5 minutes to terminate the staining reaction; • 3.3.5 the above mixture was centrifuged at 350 g for 5 minutes, and the supernatant was discarded, then the cells were resuspended by adding 10 mL of cell complete medium, counted by cell counter, and cell viability and cell count were recorded; • 3.3.6 the above mixture was centrifuged at 350 g for 5 minutes, and the supernatant was discarded, then the corresponding volume of cell complete medium was added according to the cell counting results, and the density of the resuspended cells was 2×10^6/mL and was to be used. 3.4 Cell Proliferation Stimulation • 3.4.1 50 μL/well prepared cell suspension (1×10^5 cells/well), 50 μL of 4×PHA-M (the final concentration is 5 μg/mL), 50 μL of 4×test compound, 50 μL of cell complete medium were added to the wells of 96-well cell culture plate, and the corresponding control group was set up; (total volume of the reaction system is 200 μL) • 3.4.2 the cell culture plate was placed and incubated in a 5% CO2, 37° C. cell incubator for 48 hours. 3.5 Cell Proliferation Detection • 3.5.1 the above mixture was centrifuged at 350 g for 5 minutes and the supernatant was transferred to a new cell culture plate and stored at −80° C.; • 3.5.2 200 μL of Buffer 2 was add to the wells of the culture plate, and the above mixture was centrifuged at 350 g and the supernatant was discarded; • 3.5.3 cell dead or living staining solution (7-AAD, 1:100 dilution) was prepared with Buffer 2; • 3.5.4 100 μL/well of dead or living staining solution was added, and gently blown and mixed well by pipette, and stained at room temperature for 10 min; • 3.5.5 cell proliferation was detected by flow cytometry analyzer and analyzed by Flowjo software.
# [4] = Pharmacokinetic evaluation in mice (IV and PO); assay type: in vivo, female Balb/c mice; details: for MRT last: read-out: MRT0-last
# Description: Experiment process: 0.04 mg/mL of a clarified solution of the test compound in 5% DMSO/10% Solutol solution/85% water was injected into female Balb/c mice (overnight fasting, 7-9 weeks of age) via tail vein, with dosage of 0.2 mg/kg. 0.1 mg/mL of the test compound in 5% DMSO/10% Solutol solution/0.2% Tween80/84.8% water was administered by gavage to female Balb/c mice (overnight fasting, 7-9 weeks of age), with dosage of 1 mg/kg. About 30 μL of blood was collected from the jugular vein at 0.0833, 0.25, 0.5, 1.0, 2.0, 4.0, 8.0, 10 and 24 h and from the tail vein at 0.25, 0.5, 1.0, 2.0, 4.0, 8.0 and 24 h after administration for both groups of animals, and were placed in anticoagulation tubes with EDTA-K2, and the blood was separated by centrifugation to obtain plasma. Plasma concentrations were detected by LC-MS/MS, and relevant pharmacokinetic parameters were calculated using WinNonlin™ Version 6.3 (Pharsight, Mountain View, CA) pharmacokinetic software with a non-compartmental model linear logarithmic trapezoid method.
# [5] = female, Balb/c, mouse, plasma, IV 0.2 mg/kg
# [6] = female, Balb/c, mouse, plasma, PO 1 mg/kg
# Chain of DHODH enzyme (Q02127 whole entry): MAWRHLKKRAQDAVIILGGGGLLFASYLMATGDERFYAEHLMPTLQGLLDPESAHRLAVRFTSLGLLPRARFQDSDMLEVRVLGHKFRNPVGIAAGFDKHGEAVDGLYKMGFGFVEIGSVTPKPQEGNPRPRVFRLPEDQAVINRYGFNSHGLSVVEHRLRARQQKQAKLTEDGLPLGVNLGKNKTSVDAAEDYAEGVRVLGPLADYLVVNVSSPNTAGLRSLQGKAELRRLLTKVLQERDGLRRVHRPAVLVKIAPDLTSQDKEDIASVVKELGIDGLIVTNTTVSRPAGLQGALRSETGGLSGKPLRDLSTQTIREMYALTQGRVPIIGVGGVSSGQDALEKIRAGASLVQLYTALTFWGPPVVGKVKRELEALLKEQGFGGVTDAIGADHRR
smiles,measurement,setting,value
CCn1c(CO)nn(-c2cc(O[C@@H](C)C(F)(F)F)c(/C(F)=C/c3ncccc3Cl)cc2F)c1=O [Compound 5],IC50,[1],3.5 nM
same,EC50,[2],70 nM
same,IC50,[3],0.8 nM
same,Tlast,[4]; IV 0.2 mg/kg,24.0 h
same,F,[4]; PO 1 mg/kg,95.8%
same,Tlast,[4]; PO 1 mg/kg,24.0 h
same,AUC(0-inf),[4]; [5],1.51 µM·h
same,AUC(0-t),[4]; [5],1.43 µM·h
same,clearance,[4]; [5],4.38 mL/min/kg
same,half-life,[4]; [5],5.83 h
same,MRT last,[4]; [5],6.24 h
same,Vd,"[4]; female, Balb/c, mouse, plasma, IV 0.2 mg/kg, read-out: VdSS",2.02 L/kg
same,AUC(0-inf),[4]; [6],7.21 µM·h
same,AUC(0-t),[4]; [6],6.87 µM·h
same,Tmax,[4]; [6],2 h
same,half-life,[4]; [6],5.36 h
same,MRT last,[4]; [6],6.99 h
same,C0,"[4]; female, Balb/c, mouse, IV 0.2 mg/kg, plasma",354 nM
same,Cmax,"[4]; female, Balb/c, mouse, PO 1 mg/kg, plasma",794 nM
